PubChem BioAssay AID234 (DTP/NCI, 2004)
Several values for one entry are separate records, joined by “and”; a condition that tells them apart may be missing. Identical values can stand only once. Records with an inconclusive call do not appear.

Tested on: C3AKF1 mice, hamster liver cystadenocarcinoma s.c., tumor weight T/C
Test: NCI In Vivo Anticancer Drug Screen. Data for tumor model Cystadenocarcinoma, Liver (No. 1) (Hamster) (subcutaneous) in C3AKF1 (CHKRF1) mice
Conditions: endpoint: mean tumor weight, higher = larger tumour
Method: The antitumor activity of compounds was measured in mice bearing transplantable tumors. Survival or tumor size were measured and the results are expressed as the measurement made in the treated group (T) divided by the measurement made in the vehicle treated control group (C). The tumor model used in this assay is Cystadenocarcinoma, Liver (No. 1) (Hamster) (subcutaneous) in C3AKF1 (CHKRF1) mice

[1] = dose: 22.5 mg/kg/injection, schedule: Q01DX010 (ip), vehicle: carboxymethylcellulose (CMC)
[2] = dose: 45.0 mg/kg/injection, schedule: Q01DX010 (ip), vehicle: carboxymethylcellulose (CMC)
[3] = dose: 50.0 mg/kg/injection, schedule: Q01DX010 (ip), vehicle: carboxymethylcellulose (CMC)
[4] = dose: 100.0 mg/kg/injection, schedule: Q01DX010 (ip), vehicle: carboxymethylcellulose (CMC)
[5] = dose: 3.0 mg/kg/injection, schedule: Q01DX010 (ip), vehicle: carboxymethylcellulose (CMC)
[6] = dose: 15.0 mg/kg/injection, schedule: Q01DX010 (ip), vehicle: carboxymethylcellulose (CMC)
[7] = dose: 8.0 mg/kg/injection, schedule: Q01DX010 (ip), vehicle: carboxymethylcellulose (CMC)
[8] = dose: 125.0 mg/kg/injection, schedule: Q01DX010 (ip), vehicle: carboxymethylcellulose (CMC)
[9] = dose: 250.0 mg/kg/injection, schedule: Q01DX010 (ip), vehicle: carboxymethylcellulose (CMC)
[10] = dose: 25.0 mg/kg/injection, schedule: Q01DX010 (ip), vehicle: carboxymethylcellulose (CMC)
[11] = dose: 62.0 mg/kg/injection, schedule: Q01DX010 (ip), vehicle: carboxymethylcellulose (CMC)
[12] = dose: 12.0 mg/kg/injection, schedule: Q01DX010 (ip), vehicle: carboxymethylcellulose (CMC)
[13] = dose: 12.5 mg/kg/injection, schedule: Q01DX010 (ip), vehicle: carboxymethylcellulose (CMC)

In the case of `NC(CCSCc1ccc(N(CCCl)CCCl)cc1)C(=O)O` (configuration not stated), the T/C (dose: 4.5 mg/kg/injection, schedule: Q01DX010 (ip), vehicle: saline) was 90 % of control, the T/C (dose: 9.0 mg/kg/injection, schedule: Q01DX010 (ip), vehicle: saline) was 94 % of control and the T/C (dose: 16.0 mg/kg/injection, schedule: Q01DX010 (ip), vehicle: saline) was 84 % of control. For the same compound, the T/C (dose: 18.0 mg/kg/injection, schedule: Q01DX010 (ip), vehicle: saline) was 52 % of control, the T/C (dose: 24.0 mg/kg/injection, schedule: Q01DX010 (ip), vehicle: saline) was 63 % of control and the T/C (dose: 36.0 mg/kg/injection, schedule: Q01DX010 (ip), vehicle: saline) was 55 % of control.
With `O=c1c[n+](-c2ccccc2)[nH]o1` the T/C [1] was 66 % of control and the T/C [2] was 41 % of control.
`ClCCn1cnc2c(SCc3ccccc3Cl)ncnc21` was tested, and the T/C [3] was 96 % of control, the T/C [4] was 64 % of control and the T/C (dose: 400.0 mg/kg/injection, schedule: Q01DX010 (ip), vehicle: carboxymethylcellulose (CMC)) was 49 % of control.
With `Cn1cnc([N+](=O)[O-])c1Sc1nc(N)nc2c1ncn2C1OC(CO)C(O)C1O` (configuration not stated) the T/C (dose: 1.0 mg/kg/injection, schedule: Q01DX010 (ip), vehicle: carboxymethylcellulose (CMC)) was 124 % of control, the T/C [5] was 69 % of control and the T/C [6] was 88 % of control.
`O=C1C=CC(=O)O1` (tested in a mixture with another compound) was tested, and the T/C (dose: 1.5 mg/kg/injection, schedule: Q#A X020 (ip), vehicle: carboxymethylcellulose (CMC)) was 68 % of control, the T/C (dose: 3.5 mg/kg/injection, schedule: Q#A X020 (ip), vehicle: carboxymethylcellulose (CMC)) was 82 % of control and the T/C (dose: 7.5 mg/kg/injection, schedule: Q#A X010 (ip), vehicle: carboxymethylcellulose (CMC)) was 91 % of control. The T/C (dose: 62.5 mg/kg/injection, schedule: Q#A X010 (ip), vehicle: carboxymethylcellulose (CMC)) was 77 % of control.
For `O=C1C=Cc2ccc(O)cc2C1=O`, the T/C (dose: 1.25 mg/kg/injection, schedule: Q01DX010 (ip), vehicle: carboxymethylcellulose (CMC)) was 71 % of control, the T/C (dose: 2.5 mg/kg/injection, schedule: Q01DX010 (ip), vehicle: carboxymethylcellulose (CMC)) was 72 % of control and the T/C (dose: 5.0 mg/kg/injection, schedule: Q01DX010 (ip), vehicle: carboxymethylcellulose (CMC)) was 74 % of control. For the same compound, the T/C (dose: 10.0 mg/kg/injection, schedule: Q01DX010 (ip), vehicle: carboxymethylcellulose (CMC)) was 88 % of control and 89 % of control and the T/C (dose: 20.0 mg/kg/injection, schedule: Q01DX010 (ip), vehicle: carboxymethylcellulose (CMC)) was 74 % of control.
`CS(=O)(=O)OCCCCCCCCCOS(C)(=O)=O` was tested, and the T/C [7] was 99 % of control and the T/C (dose: 16.0 mg/kg/injection, schedule: Q01DX010 (ip), vehicle: carboxymethylcellulose (CMC)) was 82 % of control.
In the case of `COC(=O)[C@@H]1c2cc3c(c(O)c2[C@@H](OC2OC(C)C(OC)C(C)(OC)C2OC)C[C@]1(C)O)C(=O)c1c(O)cc2c(c1C3=O)O[C@H]1O[C@]2(C)[C@H](O)[C@@H](N(C)C)[C@@H]1O` (some centres not stated), the T/C (dose: 0.25 mg/kg/injection, schedule: Q01DX010 (ip), vehicle: saline) was 103 % of control.
`COc1cc(OC)c(OC)cc1/C=C\c1ccnc2ccccc12` was tested, and the T/C (dose: 63.0 mg/kg/injection, schedule: Q01DX010 (ip), vehicle: carboxymethylcellulose (CMC)) was 104 % of control, the T/C [8] was 97 % of control and the T/C [9] was 95 % of control.
In the case of `CCOC(=O)NC`, the T/C (dose: 75.0 mg/kg/injection, schedule: Q01DX010 (ip), vehicle: saline) was 64 % of control, the T/C (dose: 150.0 mg/kg/injection, schedule: Q01DX010 (ip), vehicle: saline) was 83 % of control and the T/C (dose: 300.0 mg/kg/injection, schedule: Q01DX010 (ip), vehicle: saline) was 93 % of control. For the same compound, the T/C (dose: 600.0 mg/kg/injection, schedule: Q01DX010 (ip), vehicle: saline) was 83 % of control.
`O=C(NO)c1ccncc1` was tested, and the T/C (dose: 250.0 mg/kg/injection, schedule: Q01DX010 (ip), vehicle: saline) was 80 % of control, the T/C (dose: 500.0 mg/kg/injection, schedule: Q01DX010 (ip), vehicle: saline) was 78 % of control and the T/C (dose: 750.0 mg/kg/injection, schedule: Q01DX010 (ip), vehicle: saline) was 76 % of control.
For `C=CCNc1ccc(C)cc1`, the T/C (dose: 85.0 mg/kg/injection, schedule: Q01DX010 (ip), vehicle: saline) was 64 % of control, the T/C (dose: 125.0 mg/kg/injection, schedule: Q01DX010 (ip), vehicle: saline) was 91 % of control and the T/C (dose: 185.0 mg/kg/injection, schedule: Q01DX010 (ip), vehicle: saline) was 78 % of control.
With `CCCCCCCCCCCCCS` the T/C [10] was 100 % of control, the T/C [3] was 69 % of control and the T/C [4] was 90 % of control.
With `Clc1ccc(N2CCN(CCCN3CCN(c4cccc(Cl)c4)CC3)CC2)cc1` the T/C (dose: 7.5 mg/kg/injection, schedule: Q01DX010 (ip), vehicle: carboxymethylcellulose (CMC)) was 71 % of control, the T/C [6] was 62 % of control and the T/C (dose: 30.0 mg/kg/injection, schedule: Q01DX010 (ip), vehicle: carboxymethylcellulose (CMC)) was 52 % of control. The T/C (dose: 60.0 mg/kg/injection, schedule: Q01DX010 (ip), vehicle: carboxymethylcellulose (CMC)) was 69 % of control.
With `O=c1[nH]cnc2n[nH]nc12` the T/C (dose: 62.5 mg/kg/injection, schedule: Q01DX010 (ip), vehicle: carboxymethylcellulose (CMC)) was 112 % of control, the T/C [8] was 77 % of control and the T/C [9] was 60 % of control. For the same compound, the T/C (dose: 500.0 mg/kg/injection, schedule: Q01DX010 (ip), vehicle: carboxymethylcellulose (CMC)) was 68 % of control.
`CCCCSc1nc(N)nc2c1ncn2CC(C)CC` (configuration not stated) was tested, and the T/C [11] was 64 % of control, the T/C [8] was 82 % of control and the T/C [9] was 86 % of control and 94 % of control. For the same compound, the T/C (dose: 750.0 mg/kg/injection, schedule: Q01DX010 (ip), vehicle: carboxymethylcellulose (CMC)) was 54 % of control.
`O=C(Nc1ccc(C2=NCCN2)cc1)c1ccc(C(=O)Nc2ccc(C3=NCCN3)cc2)c(NC(=O)c2ccc(C(=O)Nc3cc(C(=O)Nc4ccc(C5=NCCN5)cc4)ccc3C(=O)Nc3ccc(C4=NCCN4)cc3)cc2)c1` was tested, and the T/C [11] was 102 % of control and the T/C [9] was 205 % of control.
`O=C(c1ccc(C(=O)N2CC2)cc1)N1CC1` was tested, and the T/C [5] was 69 % of control, the T/C (dose: 6.0 mg/kg/injection, schedule: Q01DX010 (ip), vehicle: carboxymethylcellulose (CMC)) was 85 % of control and the T/C [12] was 166 % of control. For the same compound, the T/C (dose: 24.0 mg/kg/injection, schedule: Q01DX010 (ip), vehicle: carboxymethylcellulose (CMC)) was 98 % of control.
`Oc1ccc2ccccc2c1N=Nc1ccccc1` was tested, and the T/C [10] was 102 % of control, the T/C [3] was 84 % of control and the T/C [4] was 75 % of control. The T/C (dose: 200.0 mg/kg/injection, schedule: Q01DX010 (ip), vehicle: carboxymethylcellulose (CMC)) was 72 % of control.
In the case of `CCCCCCCCCCCCn1c(C)nc2ccccc21`, the T/C (dose: 2.0 mg/kg/injection, schedule: Q01DX010 (ip), vehicle: carboxymethylcellulose (CMC)) was 79 % of control and the T/C [7] was 62 % of control.
With `O=C(O)C1(NO)CCCC1` the T/C [13] was 76 % of control, the T/C [10] was 108 % of control and the T/C [3] was 104 % of control. For the same compound, the T/C [4] was 80 % of control.
`O=C1NC2C(NC(=O)N2Cl)N1Cl` (configuration not stated) was tested, and the T/C (dose: 20.0 mg/kg/injection, schedule: Q01DX010 (ip), vehicle: saline) was 101 % of control.
`O=S(=O)(O)C(Nc1ccccc1)c1ccccc1` (configuration not stated) was tested, and the T/C (dose: 100.0 mg/kg/injection, schedule: Q01DX010 (ip), vehicle: water) was 88 % of control, the T/C (dose: 200.0 mg/kg/injection, schedule: Q01DX010 (ip), vehicle: water) was 66 % of control and the T/C (dose: 400.0 mg/kg/injection, schedule: Q01DX010 (ip), vehicle: water) was 84 % of control.
For `O=C(COc1cc(Cl)c(Cl)cc1Cl)OCCOc1cc(Cl)c(Cl)cc1Cl`, the T/C (dose: 11.25 mg/kg/injection, schedule: Q01DX010 (ip), vehicle: carboxymethylcellulose (CMC)) was 88 % of control, the T/C [1] was 102 % of control and the T/C [2] was 87 % of control.
In the case of `C1CC[N-]CC1.C1CC[N-]CC1.C1CC[N-]CC1.C1CC[N-]CC1.[Cl][Co][Cl]`, the T/C (dose: 35.0 mg/kg/injection, schedule: Q01DX010 (ip), vehicle: saline) was 84 % of control, the T/C (dose: 55.0 mg/kg/injection, schedule: Q01DX010 (ip), vehicle: saline) was 82 % of control and the T/C (dose: 80.0 mg/kg/injection, schedule: Q01DX010 (ip), vehicle: saline) was 71 % of control.
For `CSc1ncnc2c1ncn2C1CCCO1` (configuration not stated), the T/C [12] was 70 % of control, the T/C [10] was 69 % of control and the T/C [3] was 72 % of control and 79 % of control. The T/C [4] was 63 % of control and 76 % of control.
For `O=C(O)CC(O)(CC(=O)O)C(=O)O.[Ga]`, the T/C [13] was 123 % of control, the T/C [10] was 96 % of control and the T/C [3] was 79 % of control.
